This note sets out measurements from ChEMBL document CHEMBL2010690, “Identification and evaluation of apoptotic compounds from Garcinia oligantha” (Bioorg Med Chem Lett, 2012).

Activity calls are given as the source filed them. No cut-off for these calls is given here.

One may read the IC50 as the point on the concentration scale where inhibition reaches its midpoint.

Common to all, as to format: functional, cell-based
For assay [1], the system named is HeLa C3. Nature of the assay: Induction of apoptosis in human HeLaC3 cells assessed as caspase-3 activation at 1 uM after 72 hrs by YFP/CFP-based FRET analysis.
Assay [2] has as its system HeLa C3. Briefly: Induction of apoptosis in human HeLaC3 cells assessed as caspase-3 activation at 10 uM after 72 hrs by YFP/CFP-based FRET analysis.
The subject of assay [3] is HeLa C3. Nature of the assay: Induction of apoptosis in human HeLaC3 cells assessed as caspase-3 activation at 2.5 uM after 72 hrs by YFP/CFP-based FRET analysis.
Assay [4] has as its system HeLa C3. Nature of the assay: Induction of apoptosis in human HeLaC3 cells assessed as caspase-3 activation at 5 uM after 72 hrs by YFP/CFP-based FRET analysis.
In assay [5] the test system is HeLa. Briefly: Cytotoxicity against human HeLa cells after 72 hrs by MTT assay. (Formazan colour is commonly taken as a measure of viable cells.)
The test system of assay [6] is HeLa. Briefly: Induction of apoptosis in human HeLa cells assessed as increase in PARP cleavage at 10 uM after 24 hrs by Western blotting analysis. A general note: In western blotting, separated proteins are transferred to a membrane and probed.
Assay [7] has as its system HeLa. Nature of the assay: Induction of apoptosis in human HeLa cells assessed as increase in PARP cleavage at 10 uM after 48 hrs by Western blotting analysis.
Assay [8] relates to HeLa. Nature of the assay: Induction of apoptosis in human HeLa cells assessed as increase in PARP cleavage at 5 uM after 24 hrs by Western blotting analysis.
Assay [9] deals with HeLa. Nature of the assay: Induction of apoptosis in human HeLa cells assessed as increase in PARP cleavage at 5 uM after 48 hrs by Western blotting analysis.

Regarding `CC(C)=CCC1(O)C(=O)c2oc3cc4c(c(O)c3c(=O)c2C(CC=C(C)C)(CC=C(C)C)C1=O)C=CC(C)(C)O4` (stereo unspecified) [OLIGANTHIN B], the outcome in [1] and in [3] was inactive. The outcome in assay [2], in [4], in assay [6] and in [7] was Active. This compound showed a half-inhibitory concentration (IC50) in [5] of 1.52 µM.

On to `CC(C)=CCC1(CC=C(C)C)C(=O)C(O)=C(O)c2oc3cc4c(c(O)c3c(=O)c21)C=CC(C)(C)O4` [OLIGANTHIN A], for which the outcome in assay [1] was inactive. For the same compound, the outcome in assay [2], in assay [3], in assay [4], in [8] and in assay [9] was Active. Further, in [5], the midpoint of inhibition, the IC50, lay at 1.58 µM.

For `CC(=O)CC1(O)C(=O)c2oc3cc4c(c(O)c3c(=O)c2C(CC=C(C)C)(CC=C(C)C)C1=O)C=CC(C)(C)O4` (stereo unspecified) [OLIGANTHIN D], the result in assay [1], in [3] and in [4] was inactive. The result in [2] was Active. This compound yielded an IC50 in assay [5] of 7.82 µM.

Regarding `CC(C)=CCc1c(O)cc2oc3c(c(=O)c2c1O)C(CC=C(C)C)(CC=C(C)C)C(=O)C(O)(CC=C(C)C)C3=O` (stereo unspecified) [OLIGANTHIN C], the outcome in [1], in assay [3] and in assay [4] was inactive. In addition, the result in assay [2] was Active. The same compound displayed an IC50 in [5] of 4.15 µM.

`CO[C@@]12C=C3C(=O)c4c(O)cc(O)c(CC=C(C)C)c4O[C@@]34[C@@H](C1)C(C)(C)O[C@@]4(CC=C(C)C)C2=O` [GAUDICHAUDIONE H]: the result in assay [1] was inactive. Also, the outcome in assay [2], in assay [3], in [4], in assay [8] and in assay [9] was Active. Also, the 50% inhibitory concentration (IC50) in assay [5] is 0.9 µM.
